PMC10682911 (Saudi Pharmaceutical Journal : SPJ, 2023)
“And” between values parts separate entries of the source, which are not always exact repeats. Equal values may be shown once.

Tests used:
hCA IX = hCA IX (Homo sapiens, UniProt Q16790); assay: biochemical; details: for Selectivity analysis hCA II/IX / Selectivity analysis hCA I/IX: SI; for Selectivity analysis hCA II/IX: hCA IX over hCA II (ratio of Ki); for Ki: Ki hCA IX, stopped-flow technique, mean from 3 different assays; for Selectivity analysis hCA I/IX: hCA IX over hCA I (ratio of Ki)
hCA II = hCA II (Homo sapiens, UniProt P00918); assay: hCA II inhibition, stopped-flow technique; type: biochemical
hCA XII = hCA XII (Homo sapiens, UniProt O43570); assay: hCA XII inhibition, stopped-flow technique; type: biochemical; details: for Selectivity analysis hCA I/XII / Selectivity analysis hCA II/XII: SI; for Selectivity analysis hCA I/XII: hCA XII over hCA I (ratio of Ki); for Selectivity analysis hCA II/XII: hCA XII over hCA II (ratio of Ki)
hCA I = hCA I (Homo sapiens, UniProt P00915); assay: hCA I inhibition, stopped-flow technique; type: biochemical
Sequence of hCA I (P00915 whole entry): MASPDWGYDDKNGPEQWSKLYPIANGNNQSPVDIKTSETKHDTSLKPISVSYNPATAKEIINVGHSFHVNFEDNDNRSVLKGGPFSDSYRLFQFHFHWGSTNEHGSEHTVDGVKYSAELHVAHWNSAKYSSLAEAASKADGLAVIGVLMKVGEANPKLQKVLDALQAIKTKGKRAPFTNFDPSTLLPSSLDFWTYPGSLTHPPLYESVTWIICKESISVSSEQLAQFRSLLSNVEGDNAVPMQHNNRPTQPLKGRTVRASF

Sequence of hCA XII (O43570 25-354): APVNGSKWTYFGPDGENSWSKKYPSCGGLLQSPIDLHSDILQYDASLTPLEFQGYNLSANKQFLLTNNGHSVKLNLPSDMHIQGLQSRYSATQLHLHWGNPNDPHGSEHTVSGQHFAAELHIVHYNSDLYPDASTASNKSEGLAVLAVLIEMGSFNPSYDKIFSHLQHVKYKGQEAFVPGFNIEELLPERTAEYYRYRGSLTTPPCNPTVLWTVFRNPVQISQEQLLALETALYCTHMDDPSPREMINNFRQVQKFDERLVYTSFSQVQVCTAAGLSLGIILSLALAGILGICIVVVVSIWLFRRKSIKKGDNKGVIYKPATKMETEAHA

| Selectivity analysis hCA II/IX (hCA IX) | Ki (hCA II) [nM] | Ki (hCA XII) [nM] | Selectivity analysis hCA I/XII (hCA XII) | Selectivity analysis hCA II/XII (hCA XII) | Ki (hCA I) [nM] | Ki (hCA IX) | Selectivity analysis hCA I/IX (hCA IX) | Compound |
| --- | --- | --- | --- | --- | --- | --- | --- | --- |
| 0.31 | – | – | – | – | – | – | – | NNC(=O)CSc1nc2ccccc2c(=O)n1CCc1ccc(S(N)(=O)=O)cc1 [Compound 3, 4-(2-(2-((2-hydrazineyl-2-oxoethyl)thio)-4-oxoquinazolin-3(4H)-yl)ethyl)benzenesulfonamide] |
| 2.94 | 260 | 69.2 | 15.289 | 3.75 | 1060 | 88.3 nM | 11.98 | COc1ccc(C=NNC(=O)CSc2nc3ccccc3c(=O)n2CCc2ccc(S(N)(=O)=O)cc2)cc1OC [Compound 12, 4-(2-(2-((2-(2-(3,4-Dimethoxybenzylidene)hydrazineyl)-2-oxoethyl)thio)-4-oxoquinazolin-3(4H)-yl)ethyl)benzenesulfonamide] |
| – | 50.9 | 74.3 | 30.928 | 0.68 | 2300 | 52.7 nM | 43.60 | COc1ccc(C=NNC(=O)CSc2nc3ccccc3c(=O)n2CCc2ccc(S(N)(=O)=O)cc2)c(OC)c1 [Compound 11, 4-(2-(2-((2-(2-(2,4-Dimethoxybenzylidene)hydrazineyl)-2-oxoethyl)thio)-4-oxoquinazolin-3(4H)-yl)ethyl)benzenesulfonamide] |
| 7.77 | 228 | 79.9 | 21.21 | 2.86 | 1690 | 29.4 nM | 57.65 | COc1ccc(OC)c(C(C)=NNC(=O)CSc2nc3ccccc3c(=O)n2CCc2ccc(S(N)(=O)=O)cc2)c1 [Compound 20, 4-(2-(2-((2-(2-(1-(2,5-Dimethoxyphenyl)ethylidene)hydrazineyl)-2-oxoethyl)thio)-4-oxoquinazolin-3(4H)-yl)ethyl)benzenesulfonamide] |
| 1.80 | 333 | 85.2 | 27.09 | 3.90 | 2310 | 184 nM | 12.52 | COc1cc(C(C)=NNC(=O)CSc2nc3ccccc3c(=O)n2CCc2ccc(S(N)(=O)=O)cc2)cc(OC)c1OC [Compound 22, 4-(2-(4-Oxo-2-((2-oxo-2-(2-(1-(3,4,5-trimethoxyphenyl)ethylidene)hydrazineyl)ethyl)thio)quinazolin-3(4H)-yl)ethyl)benzenesulfonamide] |
| 4.70 | 189 | 68.1 | 12.108 | 2.77 | 825 | 40.3 nM | 20.46 | COc1ccc(C(C)=NNC(=O)CSc2nc3ccccc3c(=O)n2CCc2ccc(S(N)(=O)=O)cc2)cc1OC [Compound 19, 4-(2-(2-((2-(2-(1-(3,4-Dimethoxyphenyl)ethylidene)hydrazineyl)-2-oxoethyl)thio)-4-oxoquinazolin-3(4H)-yl)ethyl)benzenesulfonamide] |
| 1.23 | 76.4 | 19.5 | 34.08 | 3.92 | 665 | 62.6 nM and 62.2 nM | 10.68 | NS(=O)(=O)c1ccc(CCn2c(SCC(=O)NN=Cc3ccc(O)cc3)nc3ccccc3c2=O)cc1 [Compound 7, 4-(2-(2-((2-(2-(4-Hydroxybenzylidene)hydrazineyl)-2-oxoethyl)thio)-4-oxoquinazolin-3(4H)-yl)ethyl)benzenesulfonamide] |
| 2.31 | 90.1 | 34.7 | 27.58 | 2.60 | 957 | 38.9 nM | 24.60 | NS(=O)(=O)c1ccc(CCn2c(SCC(=O)NN=Cc3cccc(O)c3)nc3ccccc3c2=O)cc1 [Compound 6, 4-(2-(2-((2-(2-(3-Hydroxybenzylidene)hydrazineyl)-2-oxoethyl)thio)-4-oxoquinazolin-3(4H)-yl)ethyl)benzenesulfonamide] |
| 2.48 | 131 | 58 | 19.95 | 2.25 | 1160 | 52.7 nM | 21.95 | COc1cc(OC)cc(C(C)=NNC(=O)CSc2nc3ccccc3c(=O)n2CCc2ccc(S(N)(=O)=O)cc2)c1 [Compound 21, 4-(2-(2-((2-(2-(1-(3,5-Dimethoxyphenyl)ethylidene)hydrazineyl)-2-oxoethyl)thio)-4-oxoquinazolin-3(4H)-yl)ethyl)benzenesulfonamide] |
| 5.38 | 665 | 91.5 | 21.66 | 7.27 | 1980 | 124 nM | 16.05 | COc1cc(C=NNC(=O)CSc2nc3ccccc3c(=O)n2CCc2ccc(S(N)(=O)=O)cc2)cc(OC)c1OC [Compound 13, 4-(2-(4-Oxo-2-((2-Oxo-2-(2-(3,4,5-trimethoxybenzylidene)hydrazineyl)ethyl)thio)quinazolin-3(4H)-yl)ethyl)benzenesulfonamide] |
| 6.10 | 101 | 52.8 | 13.11 | 1.91 | 692 | 16.5 nM | 41.95 | NS(=O)(=O)c1ccc(CCn2c(SCC(=O)NN=Cc3ccc4c(c3)OCO4)nc3ccccc3c2=O)cc1 [Compound 15, 4-(2-(2-((2-(2-(Benzo[d][1,3]dioxol-5-ylmethylene)hydrazineyl)-2-oxoethyl)thio)-4-oxoquinazolin-3(4H)-yl)ethyl)benzenesulfonamide] |
| 0.50 | 29.7 | 14.2 | 60.35 | 2.09 | 857 | 60.1 nM | 14.25 | COc1cc(C=NNC(=O)CSc2nc3ccccc3c(=O)n2CCc2ccc(S(N)(=O)=O)cc2)ccc1O [Compound 14, 4-(2-(2-((2-(2-(4-Hydroxy-3-methoxybenzylidene)hydrazineyl)-2-oxoethyl)thio)-4-oxoquinazolin-3(4H)-yl)ethyl)benzenesulfonamide] |
| 1.68 | 83.4 | 46.5 | 12.00 | 1.79 | 558 | 49.7 nM | 11.23 | COc1ccc(C=NNC(=O)CSc2nc3ccccc3c(=O)n2CCc2ccc(S(N)(=O)=O)cc2)cc1 [Compound 10, 4-(2-(2-((2-(2-(4-Methoxybenzylidene)hydrazineyl)-2-oxoethyl)thio)-4-oxoquinazolin-3(4H)-yl)ethyl)benzenesulfonamide] |
